Here are results for 5 compounds from PMC9363158 (HIV medicine, 2021).

The subject of one data set is CYP2C9. The note with it: read-out: mean observed Km of progesterone metabolism by CYP2C9; liver microsome studies; cited from earlier work.
The next data set concerns CYP2C19. Conditions: read-out: mean observed Km of progesterone metabolism by CYP2C19; liver microsome studies; cited from earlier work. For orientation: Liver microsomes are vesicles of endoplasmic reticulum, rich in cytochrome P450 enzymes.
For data set [1], the system named is CYP3A4. Conditions: read-out: mean observed Km of progesterone metabolism by CYP3A4; liver microsome studies; cited from earlier work.
The next data set addresses T1, rhCYP2B6 (Homo sapiens, UniProt P20813).
T1 sequence (P20813 1-491): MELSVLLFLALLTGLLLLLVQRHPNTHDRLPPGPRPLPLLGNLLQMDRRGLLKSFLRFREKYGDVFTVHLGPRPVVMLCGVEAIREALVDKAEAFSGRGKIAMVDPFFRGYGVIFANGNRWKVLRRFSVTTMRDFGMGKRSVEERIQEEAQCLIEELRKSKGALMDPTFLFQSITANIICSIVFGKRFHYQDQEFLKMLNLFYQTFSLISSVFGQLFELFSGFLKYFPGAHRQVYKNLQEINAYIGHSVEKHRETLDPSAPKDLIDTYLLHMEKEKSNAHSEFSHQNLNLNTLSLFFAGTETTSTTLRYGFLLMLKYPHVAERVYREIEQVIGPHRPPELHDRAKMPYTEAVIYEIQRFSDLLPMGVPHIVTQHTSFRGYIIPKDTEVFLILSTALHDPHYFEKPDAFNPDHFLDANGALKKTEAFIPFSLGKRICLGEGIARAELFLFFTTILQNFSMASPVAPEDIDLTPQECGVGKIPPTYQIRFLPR
As to the kind of experiment: levonorgestrel clearance by recombinant human CYP. The data set is classed as in vitro ADME.

For data set [2] the following is noted: Jadelle subdermal implants, cited from earlier work.
The next data set relates to hepatic CYPs. As to the kind of experiment: total apparent and systemic plasma clearance scaled from rhCYP data. It counts as in vitro ADME, human.
Another data set deals with T2, rhCYP1A2 (Homo sapiens, UniProt P05177).
T2 sequence (P05177 1-516): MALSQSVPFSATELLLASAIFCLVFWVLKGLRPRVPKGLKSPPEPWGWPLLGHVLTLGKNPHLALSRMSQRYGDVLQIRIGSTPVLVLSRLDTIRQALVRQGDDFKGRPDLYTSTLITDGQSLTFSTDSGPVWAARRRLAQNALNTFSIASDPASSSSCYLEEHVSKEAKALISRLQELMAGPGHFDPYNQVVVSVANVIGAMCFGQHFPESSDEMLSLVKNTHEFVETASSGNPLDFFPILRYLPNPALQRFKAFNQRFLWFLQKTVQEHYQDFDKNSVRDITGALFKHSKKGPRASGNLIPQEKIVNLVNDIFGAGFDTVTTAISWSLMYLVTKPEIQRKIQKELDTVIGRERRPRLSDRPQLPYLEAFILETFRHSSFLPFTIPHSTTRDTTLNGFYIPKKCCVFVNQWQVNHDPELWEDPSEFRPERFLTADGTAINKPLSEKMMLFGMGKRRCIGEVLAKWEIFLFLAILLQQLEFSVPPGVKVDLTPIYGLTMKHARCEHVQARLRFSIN
As to the kind of experiment: levonorgestrel clearance by recombinant human CYP. The data set is classed as in vitro ADME.

The target of the next data set is rhCYP3A5 (Homo sapiens, UniProt P20815). As to the kind of experiment: levonorgestrel clearance by recombinant human CYP. The data set is classed as in vitro ADME.
Chain of rhCYP3A5 (P20815 whole entry): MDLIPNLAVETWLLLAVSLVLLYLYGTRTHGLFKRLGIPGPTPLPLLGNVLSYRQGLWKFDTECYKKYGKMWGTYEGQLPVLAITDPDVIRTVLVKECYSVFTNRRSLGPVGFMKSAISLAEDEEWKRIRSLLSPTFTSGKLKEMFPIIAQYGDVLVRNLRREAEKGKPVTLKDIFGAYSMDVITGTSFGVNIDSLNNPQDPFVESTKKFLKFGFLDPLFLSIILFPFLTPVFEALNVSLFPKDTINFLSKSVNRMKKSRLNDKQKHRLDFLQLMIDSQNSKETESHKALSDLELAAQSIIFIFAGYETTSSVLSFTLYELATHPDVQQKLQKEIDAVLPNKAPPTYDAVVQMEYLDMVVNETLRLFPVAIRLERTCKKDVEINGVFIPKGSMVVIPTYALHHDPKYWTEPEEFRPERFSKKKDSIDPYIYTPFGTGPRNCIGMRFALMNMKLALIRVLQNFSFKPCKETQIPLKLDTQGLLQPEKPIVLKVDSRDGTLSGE
Another data set concerns the target rhCYP2C9 (Homo sapiens, UniProt P11712). As to the kind of experiment: levonorgestrel clearance by recombinant human CYP. The data set is classed as in vitro ADME.
The conditions of data set [3]: cited from earlier work.
The target in the next data set is rhCYP2C19 (Homo sapiens, UniProt P33261). As to the kind of experiment: levonorgestrel clearance by recombinant human CYP. The data set is classed as in vitro ADME.
Chain of rhCYP2C19 (P33261 whole entry): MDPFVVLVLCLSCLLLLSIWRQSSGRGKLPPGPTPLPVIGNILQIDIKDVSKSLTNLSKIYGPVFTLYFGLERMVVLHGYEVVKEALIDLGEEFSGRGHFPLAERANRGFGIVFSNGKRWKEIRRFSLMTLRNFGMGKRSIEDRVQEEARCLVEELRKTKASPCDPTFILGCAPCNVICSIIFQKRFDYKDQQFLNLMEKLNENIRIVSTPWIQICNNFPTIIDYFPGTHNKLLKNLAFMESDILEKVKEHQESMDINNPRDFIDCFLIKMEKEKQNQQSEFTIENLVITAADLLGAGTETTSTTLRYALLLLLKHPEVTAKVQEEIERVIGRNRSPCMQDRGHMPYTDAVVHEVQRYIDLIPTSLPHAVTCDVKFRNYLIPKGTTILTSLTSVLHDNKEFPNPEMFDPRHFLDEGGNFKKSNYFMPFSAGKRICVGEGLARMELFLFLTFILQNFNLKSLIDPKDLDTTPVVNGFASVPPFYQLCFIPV
A short description of data set [4]: levonorgestrel CLint.app. by cryopreserved primary human hepatocytes. It counts as in vitro ADME. Conditions: cryopreserved primary human hepatocytes (plated).
The conditions of data set [5]: administered orally; cited from earlier work.
Another data set has as its target rhCYP3A4 (Homo sapiens, UniProt P08684). As to the kind of experiment: levonorgestrel clearance by recombinant human CYP. It counts as in vitro ADME.
In data set [6] the test system is CYP3A4.
In data set [7] the test system is CYP2B6. As to the kind of experiment: CYP gene expression in human hepatocytes. It counts as in vitro ADME.
Another data set has as its system CYP1A2. As to the kind of experiment: CYP gene expression in human hepatocytes. The data set is classed as in vitro ADME.
The conditions of data set [8]: clinical observation with rifampin; cited from earlier work.
For data set [9], the system named is CYP3A4. As to the kind of experiment: in vitro. Conditions: human, fold induction of CYP3A4 expression.
Data set [10] concerns CYP2B6. Conditions: total dolutegravir up to and including 40 μM, 48 h; cited from earlier work.
A short description of data set [11]: dolutegravir protein binding in Williams' Medium E by rapid equilibrium dialysis. The data set is classed as in vitro ADME.
Data set [12] deals with CYP3A4. The note with it: total dolutegravir up to and including 40 μM, 48 h; cited from earlier work.
For data set [13] the following is noted: in vivo; cited from earlier work.
[14] abbreviates: scaled from rhCYP data to adult female liver (Eq. 2).
Setting [15] is: levonorgestrel 5 μM, 60 min, vs ketoconazole inhibitor control.
[16] abbreviates: human, cryopreserved primary human hepatocytes.

SMILES strings stand for the structures. Several values for one entry are separate records, joined by “and”; a condition that tells them apart may be missing. Equal values may be shown once. Read-outs that look alike come from different tables or passages of the source.

Chain of rhCYP3A4 (P08684 whole entry): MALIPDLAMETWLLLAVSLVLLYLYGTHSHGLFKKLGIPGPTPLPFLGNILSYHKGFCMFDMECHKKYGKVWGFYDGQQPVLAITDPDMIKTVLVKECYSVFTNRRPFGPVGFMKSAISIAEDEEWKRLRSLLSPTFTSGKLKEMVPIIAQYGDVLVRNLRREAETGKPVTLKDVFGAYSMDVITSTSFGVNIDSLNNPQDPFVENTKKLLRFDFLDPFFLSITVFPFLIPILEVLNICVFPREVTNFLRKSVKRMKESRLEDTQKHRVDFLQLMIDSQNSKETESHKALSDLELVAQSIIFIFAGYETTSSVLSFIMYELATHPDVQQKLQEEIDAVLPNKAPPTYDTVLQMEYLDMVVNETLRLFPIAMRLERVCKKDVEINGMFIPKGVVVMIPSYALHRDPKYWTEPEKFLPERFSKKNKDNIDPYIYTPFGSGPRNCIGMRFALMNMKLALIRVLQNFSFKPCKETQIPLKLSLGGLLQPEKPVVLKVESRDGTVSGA
Chain of rhCYP2C9 (P11712 whole entry): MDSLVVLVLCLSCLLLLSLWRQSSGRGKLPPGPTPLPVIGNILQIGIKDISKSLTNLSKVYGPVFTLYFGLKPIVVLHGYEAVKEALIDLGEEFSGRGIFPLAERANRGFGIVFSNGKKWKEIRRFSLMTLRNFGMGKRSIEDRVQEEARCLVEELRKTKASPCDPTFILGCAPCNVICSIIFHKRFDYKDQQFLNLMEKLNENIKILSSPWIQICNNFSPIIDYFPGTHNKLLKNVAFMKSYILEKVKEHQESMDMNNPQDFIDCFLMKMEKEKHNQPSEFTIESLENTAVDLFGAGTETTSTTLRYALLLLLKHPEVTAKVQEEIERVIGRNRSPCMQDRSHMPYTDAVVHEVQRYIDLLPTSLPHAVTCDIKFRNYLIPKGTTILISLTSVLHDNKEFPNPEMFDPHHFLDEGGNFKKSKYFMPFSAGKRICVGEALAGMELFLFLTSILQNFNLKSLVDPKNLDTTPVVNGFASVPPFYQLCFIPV

`CC(=O)[C@H]1CC[C@H]2[C@@H]3CCC4=CC(=O)CC[C@]4(C)[C@H]3CC[C@]12C` [progesterone]: the Km is 46 µM in the data set on CYP2C9, 37 µM in the data set with CYP2C19 and 80 µM in the data set on CYP3A4 [1].

For the compound `C#C[C@]1(O)CC[C@H]2[C@@H]3CCC4=CC(=O)CC[C@@H]4[C@H]3CC[C@@]21CC` [levonorgestrel], on rhCYP2B6 (levonorgestrel 5 μM, 60 min, vs sertraline inhibitor control), the “levonorgestrel CLint.app. rhCYP2B6” value was 0.052 ± 0.004 µL/min/pmol. For the same compound, the “TCLH, CYP2B6” value at rhCYP2B6 (setting [14]) amounted to 2.6 ± 0.2 L/h. Also, the “plasma concentration of levonorgestrel” value in data set [2] (1 month after insertion) is 1.39 nM and 435 pg/mL; in data set [2] (3 years after insertion), 0.90 nM and 280 pg/mL. The “total systemic plasma clearance” value with hepatic CYPs (from CLapp, fu 3% (Eq. 4)) turned out to be 2.38 ± 0.46 L/h. For the same compound, the “total apparent clearance (CLapp) by the hepatic CYPs measured” value with hepatic CYPs (sum of TCLH of six CYPs (Eq. 3)) is listed as 80.97 ± 15.53 L/h. The “levonorgestrel CLint.app. rhCYP1A2” value on rhCYP1A2 (levonorgestrel 5 μM, 60 min, vs α-naphthoflavone inhibitor control) worked out at 0.028 ± 0.012 µL/min/pmol. Also, the “TCLH, CYP1A2” value on rhCYP1A2 (setting [14]) amounted to 3.4 ± 1.5 L/h. Besides, the “levonorgestrel CLint.app. rhCYP3A5” value at rhCYP3A5 (setting [15]) is 0.178 ± 0.027 µL/min/pmol. For the same compound, the “TCLH, CYP3A5” value on rhCYP3A5 (setting [14]) was determined as 9.4 ± 1.4 L/h. Besides, at rhCYP2C9 (levonorgestrel 5 μM, 60 min, vs sulfaphenazole inhibitor control), the “levonorgestrel CLint.app. rhCYP2C9” value came to 0.062 ± 0.010 µL/min/pmol. Moreover, the “TCLH, CYP2C9” value on rhCYP2C9 (setting [14]) is listed as 11.6 ± 1.9 L/h. In addition, the “bound to human plasma” value in [3] was 97%. In addition, in [3] (set from 97% binding), the “fraction unbound in plasma (fu)” value was 3%. Further, on rhCYP2C19 (levonorgestrel 5 μM, 60 min, vs (+)-N-3-benzylnirvanol inhibitor control), the “levonorgestrel CLint.app. rhCYP2C19” value came to 0.046 ± 0.005 µL/min/pmol. Besides, the “TCLH, CYP2C19” value on rhCYP2C19 (setting [14]) was determined as 1.6 ± 0.2 L/h. The same compound had a hepatocyte CLint at 1 nM in data set [4] of 22.4 ± 5 µL/min/1e6 cells. Also, the oral bioavailability result in data set [5] is on record as “high bioavailability”. In addition, at rhCYP3A4 (setting [15]), the “levonorgestrel CLint.app. mediated by rhCYP3A4” value came to 0.182 ± 0.036 µL/min/pmol. Further, the “total intrinsic clearance by a single CYP in the liver as a whole (TCLH), CYP3A4” value at rhCYP3A4 (setting [14]) was 52.5 ± 10.4 L/h.

With `CCC1(c2ccccc2)C(=O)NC(=O)NC1=O` [phenobarbital], the “fold increase in CYP3A4 expression” value with CYP3A4 [6] (human, hepatocytes) was 4.8 ± 0.7 fold. The fold induction at 72 h, 1 mM with CYP2B6 [7] (setting [16]) came to 2.6 ± 1.1; with CYP1A2 (setting [16]), 2.7 ± 0.6.

For the compound `CO[C@H]1/C=C/O[C@@]2(C)Oc3c(C)c(O)c4c(O)c(c(/C=N/N5CCN(C)CC5)c(O)c4c3C2=O)NC(=O)/C(C)=C\C=C\[C@H](C)[C@H](O)[C@@H](C)[C@@H](O)[C@@H](C)[C@H](OC(C)=O)[C@@H]1C` [rifampin], the fold induction at 72 h, 10 μM in the data set on CYP2B6 [7] (setting [16]) was found to be 2 ± 0.5. Also, in data set [8], the “decrease of levonorgestrel exposure” value is 58%.

Regarding `C[C@@H]1CCO[C@H]2Cn3cc(C(=O)NCc4ccc(F)cc4F)c(=O)c(O)c3C(=O)N12` [dolutegravir], the fold induction in the data set with CYP3A4 [9] turned out to be 2.3 ± 0.4. The “effect on expression of CYP3A4” value is listed as “no effect” in the data set with CYP3A4 [6] and “expression of neither CYP2B6 nor CYP3A4 was affected” with CYP3A4 [12]. Also, the “effect on expression of CYP2B6” value with CYP2B6 [10] was “expression of neither CYP2B6 nor CYP3A4 was affected”; in the data set on CYP2B6 [7] (dolutegravir at concentrations spanning unbound range reported in human plasma (24.6–57.2 nM), 72 h), “no effect”. Besides, the fold induction at 72 h, 3.33 μM in the data set with CYP2B6 [7] (setting [16]) stood at 2.2 ± 0.3. In the data set on CYP2B6 [7] (setting [16]), the fold induction at 72 h, 10 μM was found to be 2.3 ± 0.7. The same compound yielded a fraction unbound at 4 h, 5 μM in [11] of 0.43 ± 0.09. Moreover, the “unbound concentration range in human plasma” value in [13] is 24.6 to 57.2 nM. The “induction of CYP1A2 expression (≥ two-fold above vehicle control)” value in the data set on CYP1A2 (dolutegravir 0.00033–10 μM (unbound 0.142–4310 nM), 72 h) is on record as “did not induce the expression of CYP1A2”.

For orientation: Km means the concentration of substrate that gives half-maximal velocity. As a reminder, the hepatocyte CLint is the capacity of the preparation to metabolise the compound, expressed as a volume cleared per time. As usually defined, the fold induction is the ratio of treated to control signal. The fraction unbound is free concentration divided by total concentration.
